This note sets out measurements from US12509482B2, “3′-ketoglycoside compound for the slow release of a volatile alcohol” (GLYCOSCIENCE, S.L., priority 2020, dated 2025).

Data set [1] in a line: Example 22: competitive release of para-nitrophenol from an approximately equimolar solution of 4-nitrophenyl-O-β-D- and -O-α-D-3′-ketoglucopyranoside, 32° C., 1H NMR integrals. It counts as physicochemical. The text has this:
In this example the competitive rate of release of para-nitrophenol from an approximately equimolar solution of (2R,5S,6S)-3,5-dihydroxy-2-(hydroxymethyl)-6-(4-nitrophenoxy)tetrahydro-4H-pyran-4-one (4-nitrophenyl-O-β-D-3′-ketoglucopyranoside) and (2R,5S,6S)-3,5-dihydroxy-2-(hydroxymethyl)-6-(4-nitrophenoxy)tetrahydro-4H-pyran-4-one (4-nitrophenyl-O-α-D-3′-ketoglucopyranoside) in D2O containing 1.5% D6-DMSO or in 0.1 M deuterated phosphate buffer, pH 5.8 containing 1.5% D6-DMSO or in D2O was determined.
A solution containing approximately 2 mg each of 4-nitrophenyl-O-β-D-3′-ketoglucopyranoside and 4-nitrophenyl-O-α-D-3′-ketoglucopyranoside was prepared in 1 mL of D2O containing 3.3% v/v D6-DMSO. To two 0.375 mL portions of the resultant solution was added either D2O (0.5 mL) or 0.1M sodium phosphate buffer, pH 5.8 (0.5 mL) to given reactions 1 and 2 respectively. The resultant mixtures were analysed by ^1H NMR directly following preparation then incubated at 32° C./80 rpm and periodically analysed by ^1H NMR at recorded time points.
The change in the ratio between the integrals of the anomeric protons of each ketoglucoside and between the were sum of the anomeric protons and the anomeric protons of each ketoglucoside with time are shown in Table IX: […]

Data set [2] can be described thus: Example 25: release of geraniol from geranyl-O-β-D-2′-acetamido-2′-deoxy-3′-keto-glucopyranoside vs geranyl-β-2′-acetamido-2′-deoxy-glucopyranoside, 0.1 M deuterated phosphate buffer or D2O, 33% D6-DMSO, 32° C. Format: physicochemical. As to conditions: for stability / geraniol release (in words): 32° C. The text has this: In this example the rate of release of geraniol from N-((2R,3S,5R,6R)-2-(((E)-3,7-dimethylocta-2,6-dien-1-yl)oxy)-5-hydroxy-6-(hydroxymethyl)-4-oxotetrahydro-2H-pyran-3-yl)acetamide (geranyl-O-β-D-2′-acetamido-2′-deoxy-3′-keto-glucopyranoside) vs. N-((2R,3R,4R,5S,6R)-2-(((E)-3,7-dimethylocta-2,6-dien-1-yl)oxy)-4,5-dihydroxy-6-(hydroxymethyl)tetrahydro-2H-pyran-3-yl)acetamide (geranyl-R-2′-acetamido-2′-deoxy-glucopyranoside) in D2O containing 33% D6-DMSO or in 0.1 M deuterated phosphate buffer solutions of differing pH containing 33% D6-DMSO or in D2O was determined.
0.1 M of pH 5.8 and 7.4 stock buffered solutions of sodium dihydrogen phosphate and disodium hydrogen phosphate were prepared in deuterated water (D2O).
A stock solution of 25 mg of geranyl-O-β-D-2′-acetamido-2′-deoxy-3′-keto-glucopyranoside in 1.0 mL of D6-DMSO were prepared.
To four parallel reaction vials, where indicated in the reaction table below, was added 0.20 mL of the glycoside substrate solutions in D6-DMSO and 0.40 mL of low or high pH 0.1M phosphate buffer in D2O and the mixtures incubated by shaking at 32° C. After times indicated in table below, the mixtures where analysed by ^1H-NMR in a 400 MHz instrument.

Where [3] appears, read: Reaction 2, 0.1M sodium phosphate buffer, pH 5.8, 0 h.
Where [4] appears, read: Reaction 2, 0.1M sodium phosphate buffer, pH 5.8, 20 h.
The mark [5] stands for this setting: Reaction 2, 0.1M sodium phosphate buffer, pH 5.8, 45 h.

Molecules are shown by their SMILES.

Consider `O=C1[C@@H](O)[C@@H](Oc2ccc([N+](=O)[O-])cc2)O[C@H](CO)[C@H]1O`, for which the “ratio of the sum of aromatic/α-ketoglucoside proton integrals” value in data set [1] (Reaction 1, D2O, 0 h) came to 6.9; in data set [1] (Reaction 1, D2O, 20 h), 7.1; in data set [1] (Reaction 1, D2O, 45 h), 6.8; in data set [1] (Reaction 1, D2O, 143 h), 6.2; in data set [1] (setting [3]), 5.7; in data set [1] (setting [4]), 9.3. In addition, the “ratio of the sum of aromatic/α-ketoglucoside proton integrals” value in data set [1] (setting [5]) is 14.2; in data set [1] (Reaction 2, 0.1M sodium phosphate buffer, pH 5.8, 143 h), 30.2. The “ratio of α-/β-ketoglucoside proton integrals” value came to 1.0 in data set [1] (Reaction 1, D2O, 0 h); 1.2 in data set [1] (Reaction 1, D2O, 20 h); 1.3 in data set [1] (Reaction 1, D2O, 45 h); 1.3 in data set [1] (Reaction 1, D2O, 72 h); 1.2 in data set [1] (setting [3]); 0.8 in data set [1] (setting [4]). Also, the “ratio of α-/β-ketoglucoside proton integrals” value in data set [1] (setting [5]) was 0.7; in data set [1] (Reaction 2, 0.1M sodium phosphate buffer, pH 5.8, 72 h) it was 0.35.

As to `CC(=O)N[C@H]1[C@H](OC/C=C(\C)CCC=C(C)C)O[C@H](CO)[C@@H](O)[C@@H]1O` [N-((2R,3R,4R,5S,6R)-2-(((E)-3,7-dimethylocta-2,6-dien-1-yl)oxy)-4,5-dihydroxy-6-(hydroxymethyl)tetrahydro-2H-pyran-3-yl)acetamide, reference compound], the “stability / geraniol release (in words)” value in data set [2] is listed as “remains stable at pH 7.4”. The “% Conversion by 1H-NMR” value is recorded as 0% in data set [2] (pH 7.4, 0 h); 0% in data set [2] (pH 7.4, 1.5 h); 0% in data set [2] (pH 7.4, 22 h); 0% in data set [2] (pH 7.4, 48 h); 0% in data set [2] (pH 7.4, 216 h).

Take `CC(=O)N[C@@H]1C(=O)[C@H](O)[C@@H](CO)O[C@H]1OC/C=C(\C)CCC=C(C)C` [N-((2R,3S,5R,6R)-2-(((E)-3,7-dimethylocta-2,6-dien-1-yl)oxy)-5-hydroxy-6-(hydroxymethyl)-4-oxotetrahydro-2H-pyran-3-yl)acetamide]: the “stability / geraniol release (in words)” value in data set [2] is “generates geraniol at both pH 5.8 and pH 7.4”. The “% Conversion by 1H-NMR” value in data set [2] (D2O, 0 h) is 0%; in data set [2] (D2O, 1.5 h), 0%; in data set [2] (D2O, 22 h) it was 0%; in data set [2] (D2O, 48 h) it was 0%; in data set [2] (D2O, 216 h), 0%; in data set [2] (pH 5.8, 0 h), 0%. The “% Conversion by 1H-NMR” value is 5% in data set [2] (pH 5.8, 1.5 h); 25% in data set [2] (pH 5.8, 22 h); 32% in data set [2] (pH 5.8, 48 h); 39% in data set [2] (pH 5.8, 216 h); 0% in data set [2] (pH 7.4, 0 h); 5% in data set [2] (pH 7.4, 1.5 h). The “% Conversion by 1H-NMR” value in data set [2] (pH 7.4, 22 h) came to 88%; in data set [2] (pH 7.4, 48 h), 100%; in data set [2] (pH 7.4, 216 h), 100%. The “rate of geraniol release compared with other ketoglycosides (in words)” value in data set [2] (similar conditions) was “greater than observed from geranyl-3′-keto-2′-deoxyglucopyranoside (Example 25) or geranyl-O-β-D-3′-ketoglucopyranoside (Example 17) under similar conditions”.
